{"source": "patent US20050032646A1", "about": "“Agents for the regulation of gametophytic self-incompatibility and a control method for the breakdown of gametophytic self-incompatibility using the agents” (priority 2002, published 2005)", "key": {"[1]": {"tested_on": "style-specific S RNase of Fuji apple", "assay": "Inhibition of the activity of a style-specific S RNase by the agents", "type": "biochemical", "details": "optical density at 260 nm (A260), agent 2.0 mM, no treatment 1.10", "method": "Inhibition of S RNase activity by an agent of the present invention was measured as follows: The standard solution of 500 μL of 10 mM sodium phosphate (pH 7.0) with an agent (2.0 mM), and 500 μL of torula yeast rRNA (5 mg/mL) was pre-incubated for 10 min at 37° C. To the substrate solution, the 20 μL of the style-specific S RNase (200 ng) of Fuji apple was added, then the solution was incubated for 30 min at 37° C. A fraction of 200 μL was collected and 40 μL of stop buffer (ice-cold 25% HCIO4, 0.75% uranyl acetate) was added, then mixed and centrifuged at 12,000 rpm for 5 min. And 50 μL of the supernatant was diluted with 950 μL of dd H2O, then the solution was centrifuged and measured the optical density at 260 nm (A260) (Singh A. et al., Plant Physilolgy, 96: 61-68,1991)."}, "[2]": {"tested_on": "Lycopersicon peruvianum", "assay": "Breakdown of the self-incompatibility in Lycopersicon peruvianum (fruition rate, greenhouse)", "type": "in vivo", "method": "To verify the inhibition of a style-specific S RNase and the suppression of SI system with an agent of the present invention in a practical cultivating Environment, a wild-type tomato (Lycopersicon peruvianum) which has a gametophytic SI system was cultivated in a greenhouse at genetically insulated environment and was treated with an S RNase inhibitor of the present invention.\nTo determine the treatment period of an S RNase inhibitor, the inhibitor was applied to flowers either at the early blooming period (budding formation period to full blooming), or the middle blooming period (full blooming), or the late blooming period (1 day after full blooming period of petal), respectively. Each inhibitors in 0.1 mM aqueous solution (except the ZnSO4 (1 mM) and CuSO4 (1.0 mM) solution) was treated enough to get-wet flowers ith a micro-spray at 9:00-11:00 AM when the pollination of plant occurs most actively. The experiment with 25 blooming flowers (organ containing a stamen, a stigma, a petal, etc.) was repeated 4 times and the fruition rate ws investigated and the results are shown in Table 2."}, "[3]": {"tested_on": "Hongro apple flowers", "assay": "Side-effect of the agents toward Hongro apple flowers", "type": "in vivo", "parameters": "key: 0: no side-effect is observed, and it is same as no treatment of the agents; 1: the side-effect are observed in flowers, but they recover to normal fruition in a week; 2: a fall-out of flowers and 10% decrease in fruition rate; 3: about 40% loss; 4: 60% loss; 5: a severe loss in fruition", "method": "To investigate the side-effect of the agent, various concentrations of the agents were treated to the flowers of Hongro apple."}, "[4]": {"tested_on": "20-Century pear", "assay": "Breakdown of the self-incompatibility in 20-century pear (fertilization rate, field)", "type": "in vivo", "details": "600 μM, sprayed 5 and 2 days before full bloom, 14 days after the treatment", "method": "In a field test, 20-Century pear (the Rosaceae) which has self-incompatibility system was isolated single-genetically by covering up selected branches or whole plants with a fine-meshed net to exclude any pollinating insects. The aqueous of 600 μM solution of an agent of the present invention was treated enough to get-wet flowers with a micro-spray at 9:00-11:00 AM. The agent solution was micro-sprayed 2 times; first at 5 days before full bloom and second at 2 days before full bloom. The reference was artificial cross-pollination at full bloom. The fertilization rate was investigated 14 days after the treatment and compared with no treatment and artificial cross-pollination."}, "[5]": {"tested_on": "Hongro apple", "assay": "Breakdown of the self-incompatibility in Hongro apple (self-pollination rate, field)", "type": "in vivo", "details": "25 days after the treatment", "method": "In the field application experiment, Hongro apple (the Rosaceae) which has a very low self-pollination rate (<5%) was isolated single-genetically by covering up whole plants with a fine-meshed net to exclude any pollinating insects. The agent of the present invention was treated enough to get-wet flowers at various concentrations with a micro-spray at 9:00-11:00 AM. The target of the agent was the first-blooming primary apple flower. The self-pollination rate was investigated 25 days after the treatment and compared with no treatment and artificial cross-pollination."}, "[6]": {"tested_on": "Safinia purple", "assay": "Breakdown of self-incompatibility and seed production of Safinia purple", "type": "in vivo, Safinia purple (petunia)", "method": "To establish the application method of the SI suppressing agent for the seed production, a field experiment was performed with Safinia purple ( the Solanaceae, a petunia developed by Suntory Ltd).\nTo a 15 cm-radii round pot, were added fine soil (pH 5.6) and 2 gr of complex fertilizer (including N, P, K 8% each) and they were mixed well. Safinia purple of 10 cm height were planted and raised in a green house for 2 weeks. At the period of 30 % bloom the diluted aqueous solutions of Zn(II) propionate or Cu(II) propionate agent were micro-sprayed enough to wet a flower and a style(3 ml). Two days after treatment of the agent, self-pollen was pollinated to its own style and the seed production was investigated. The experiments were repeated twice."}, "[7]": {"details": "agent 0.1 mM, treated 1 day after full blooming"}, "[8]": {"details": "agent 0.1 mM, treated 1 day before full blooming"}, "[9]": {"details": "agent 0.1 mM, treated 2 days after full blooming"}, "[10]": {"details": "agent 0.1 mM, treated 2 days before full blooming"}, "[11]": {"details": "agent 0.1 mM, treated 3 days before full blooming"}, "[12]": {"details": "agent 0.1 mM, treated 4 days before full blooming"}, "[13]": {"details": "agent 0.1 mM, treated 5 days before full blooming"}, "[14]": {"details": "agent 0.1 mM, treated 6 days before full blooming"}, "[15]": {"details": "agent 0.1 mM, treated 7 days before full blooming"}, "[16]": {"details": "agent 0.1 mM, treated at full blooming (0 day)"}}, "data": [{"smiles": "COCCOCCOCC(=O)[O-].COCCOCCOCC(=O)[O-].[Cu+2]", "note": "[Cu(II) 2-(2-methoxyethoxy)ethoxyacetete, Cu(II) 2-(2-methoxyethoxy) ethoxyacetete]", "values": [{"measurement": "OD (2.0 mM)", "setting": "[1]", "result": 0.63}, {"measurement": "fruition rate", "setting": "[2]; [7]", "result": 0, "unit": "%"}, {"measurement": "fruition rate", "setting": "[2]; [8]", "result": ">60", "unit": "%"}, {"measurement": "fruition rate", "setting": "[2]; [9]", "result": 0, "unit": "%"}, {"measurement": "fruition rate", "setting": "[2]; [10]", "result": ">50", "unit": "%"}, {"measurement": "fruition rate", "setting": "[2]; [11]", "result": ">10", "unit": "%"}, {"measurement": "fruition rate", "setting": "[2]; [12]", "result": "<10", "unit": "%"}, {"measurement": "fruition rate", "setting": "[2]; [13]", "result": 0, "unit": "%"}, {"measurement": "fruition rate", "setting": "[2]; [14]", "result": 0, "unit": "%"}, {"measurement": "fruition rate", "setting": "[2]; [15]", "result": 0, "unit": "%"}, {"measurement": "fruition rate", "setting": "[2]; [16]", "result": ">50", "unit": "%"}, {"measurement": "side-effect index", "setting": "[3]; 1.0 mM", "result": 0}, {"measurement": "side-effect index", "setting": "[3]; 5.0 mM", "result": 0}, {"measurement": "side-effect index", "setting": "[3]; 20.0 mM", "result": 1}, {"measurement": "fertilization rate", "setting": "[4]", "result": 53, "unit": "%"}]}, {"smiles": "COCCOCCOCC(=O)[O-].COCCOCCOCC(=O)[O-].[Zn+2]", "note": "[Zn(II) 2-(2-methoxyethoxy)ethoxyacetete, Zn(II) 2-(2-methoxyethoxy) ethoxyacetete]", "values": [{"measurement": "OD (2.0 mM)", "setting": "[1]", "result": 0.62}, {"measurement": "fruition rate", "setting": "[2]; [7]", "result": 0, "unit": "%"}, {"measurement": "fruition rate", "setting": "[2]; [8]", "result": ">60", "unit": "%"}, {"measurement": "fruition rate", "setting": "[2]; [9]", "result": 0, "unit": "%"}, {"measurement": "fruition rate", "setting": "[2]; [10]", "result": ">50", "unit": "%"}, {"measurement": "fruition rate", "setting": "[2]; [11]", "result": ">10", "unit": "%"}, {"measurement": "fruition rate", "setting": "[2]; [12]", "result": "<10", "unit": "%"}, {"measurement": "fruition rate", "setting": "[2]; [13]", "result": 0, "unit": "%"}, {"measurement": "fruition rate", "setting": "[2]; [14]", "result": 0, "unit": "%"}, {"measurement": "fruition rate", "setting": "[2]; [15]", "result": 0, "unit": "%"}, {"measurement": "fruition rate", "setting": "[2]; [16]", "result": ">50", "unit": "%"}, {"measurement": "side-effect index", "setting": "[3]; 1.0 mM", "result": 0}, {"measurement": "side-effect index", "setting": "[3]; 5.0 mM", "result": 0}, {"measurement": "side-effect index", "setting": "[3]; 20.0 mM", "result": 1}, {"measurement": "fertilization rate", "setting": "[4]", "result": 51, "unit": "%"}]}, {"smiles": "O=S(=O)([O-])[O-].[Cu+2]", "note": "[CuSO4, reference compound]", "values": [{"measurement": "OD (2.0 mM)", "setting": "[1]", "result": 0.70}, {"measurement": "fruition rate", "setting": "[2]; agent 1.0 mM, treated 1 day after full blooming", "result": 0, "unit": "%"}, {"measurement": "fruition rate", "setting": "[2]; agent 1.0 mM, treated 1 day before full blooming", "result": 0, "unit": "%"}, {"measurement": "fruition rate", "setting": "[2]; agent 1.0 mM, treated 2 days after full blooming", "result": 0, "unit": "%"}, {"measurement": "fruition rate", "setting": "[2]; agent 1.0 mM, treated 2 days before full blooming", "result": 0, "unit": "%"}, {"measurement": "fruition rate", "setting": "[2]; agent 1.0 mM, treated 3 days before full blooming", "result": "<5", "unit": "%"}, {"measurement": "fruition rate", "setting": "[2]; agent 1.0 mM, treated 4 days before full blooming", "result": "<5", "unit": "%"}, {"measurement": "fruition rate", "setting": "[2]; agent 1.0 mM, treated 5 days before full blooming", "result": ">10", "unit": "%"}, {"measurement": "fruition rate", "setting": "[2]; agent 1.0 mM, treated 6 days before full blooming", "result": ">10", "unit": "%"}, {"measurement": "fruition rate", "setting": "[2]; agent 1.0 mM, treated 7 days before full blooming", "result": ">10", "unit": "%"}, {"measurement": "fruition rate", "setting": "[2]; agent 1.0 mM, treated at full blooming (0 day)", "result": 0, "unit": "%"}, {"measurement": "self-pollination rate", "setting": "[5]; concentration 0.01 mM", "result": 0, "unit": "%"}, {"measurement": "self-pollination rate", "setting": "[5]; concentration 0.03 mM", "result": 0, "unit": "%"}, {"measurement": "self-pollination rate", "setting": "[5]; concentration 0.10 mM", "result": 0, "unit": "%"}, {"measurement": "self-pollination rate", "setting": "[5]; concentration 0.30 mM", "result": 0, "unit": "%"}, {"measurement": "self-pollination rate", "setting": "[5]; concentration 1.0 mM", "result": "<10", "unit": "%"}, {"measurement": "side-effect index", "setting": "[3]; 1.0 mM", "result": 3}, {"measurement": "side-effect index", "setting": "[3]; 5.0 mM", "result": 5}, {"measurement": "side-effect index", "setting": "[3]; 20.0 mM", "result": 5}]}, {"smiles": "CCC(=O)[O-].CCC(=O)[O-].[Cu+2]", "note": "[Cu(II) Propionate]", "values": [{"measurement": "OD (2.0 mM)", "setting": "[1]", "result": 0.73}, {"measurement": "side-effect index", "setting": "[3]; 1.0 mM", "result": 0}, {"measurement": "side-effect index", "setting": "[3]; 5.0 mM", "result": 0}, {"measurement": "side-effect index", "setting": "[3]; 20.0 mM", "result": 1}, {"measurement": "fertilization rate", "setting": "[4]", "result": 53, "unit": "%"}, {"measurement": "seed production relative (%) to control", "setting": "[6]; concn 10 μM", "result": 485.7, "unit": "%"}, {"measurement": "self-pollination pollination ratio (%)", "setting": "[6]; concn 10 μM", "result": 47.6, "unit": "%"}, {"measurement": "self-pollination relative (%) to control", "setting": "[6]; concn 10 μM", "result": 2000, "unit": "%"}, {"measurement": "seed production relative (%) to control", "setting": "[6]; concn 30 μM", "result": 1714.3, "unit": "%"}, {"measurement": "self-pollination pollination ratio (%)", "setting": "[6]; concn 30 μM", "result": 52.1, "unit": "%"}, {"measurement": "self-pollination relative (%) to control", "setting": "[6]; concn 30 μM", "result": 2500, "unit": "%"}, {"measurement": "seed production relative (%) to control", "setting": "[6]; concn 100 μM", "result": 2228.6, "unit": "%"}, {"measurement": "self-pollination pollination ratio (%)", "setting": "[6]; concn 100 μM", "result": 82.6, "unit": "%"}, {"measurement": "self-pollination relative (%) to control", "setting": "[6]; concn 100 μM", "result": 3800, "unit": "%"}, {"measurement": "seed production relative (%) to control", "setting": "[6]; concn 300 μM", "result": 1471.4, "unit": "%"}, {"measurement": "self-pollination pollination ratio (%)", "setting": "[6]; concn 300 μM", "result": 74.3, "unit": "%"}, {"measurement": "self-pollination relative (%) to control", "setting": "[6]; concn 300 μM", "result": 2600, "unit": "%"}, {"measurement": "seed production relative (%) to control", "setting": "[6]; concn 1000 μM", "result": 2342.9, "unit": "%"}, {"measurement": "self-pollination pollination ratio (%)", "setting": "[6]; concn 1000 μM", "result": 76.2, "unit": "%"}, {"measurement": "self-pollination relative (%) to control", "setting": "[6]; concn 1000 μM", "result": 3200, "unit": "%"}]}]}
